{
  "source": "patent US9617263B2",
  "about": "“Phenyl-triazolo-pyridine compounds” (Eli Lilly and Company, priority 2014, dated 2017)",
  "key": {"[1]": {"system": "Male Balb/c mice", "test": "Intraperitoneal glucose tolerance test (IPGTT)", "type": "in vivo, mouse", "description": "To examine the ability of Examples 1 to 20 to activate GPR40 in-vivo resulting in desired glucose lowering efficacy, i.e. reduction in plasma glucose levels, an intraperitoneal glucose tolerance test (ipGTT) study is completed, and the data is shown for the compound tested below.\nMale Balb/c (Albino mice) mice (8-9 weeks of age) are single housed, and fed with normal rodent chow diet and water ad libitum. Animals are weighed; randomized by body weight; and their daily body weights are recorded. Animals are dosed daily using a formulation carrying methylcellulose and tween-80. On the night before the study, animals are fasted. In the morning, animals are dosed orally with compound or vehicle alone 60 minutes prior to the glucose tolerance test (glucose 2 g/kg, i.p.). Blood glucose levels are determined from tail bleeds taken at 0, 3, 7, 15, 30, and 60 min after glucose challenge. […] Percent lowering in glucose is calculated from the AUC data of the compound with respect to the AUC of vehicle group. The test compound is orally administered at 0.3, 1.0, 3.0, 10, 30, or 100 mg/kg, and a positive control (3-[4-(2-methyl-benzyloxy)-phenyl]-hex-4-ynoic acid, see WO2005086661 (TAK875).) is administered at 10 mg/kg. […] Glucose levels are lowered at the 30, and 60 minute time points for the positive control."}, "[2]": {"biological_target": "T1, PPARγ (Homo sapiens, UniProt P37231)", "T1 construct": "expressed in transfected cells; host or cells: CV1 (African green monkey kidney)", "T1 sequence (P37231 1-505)": "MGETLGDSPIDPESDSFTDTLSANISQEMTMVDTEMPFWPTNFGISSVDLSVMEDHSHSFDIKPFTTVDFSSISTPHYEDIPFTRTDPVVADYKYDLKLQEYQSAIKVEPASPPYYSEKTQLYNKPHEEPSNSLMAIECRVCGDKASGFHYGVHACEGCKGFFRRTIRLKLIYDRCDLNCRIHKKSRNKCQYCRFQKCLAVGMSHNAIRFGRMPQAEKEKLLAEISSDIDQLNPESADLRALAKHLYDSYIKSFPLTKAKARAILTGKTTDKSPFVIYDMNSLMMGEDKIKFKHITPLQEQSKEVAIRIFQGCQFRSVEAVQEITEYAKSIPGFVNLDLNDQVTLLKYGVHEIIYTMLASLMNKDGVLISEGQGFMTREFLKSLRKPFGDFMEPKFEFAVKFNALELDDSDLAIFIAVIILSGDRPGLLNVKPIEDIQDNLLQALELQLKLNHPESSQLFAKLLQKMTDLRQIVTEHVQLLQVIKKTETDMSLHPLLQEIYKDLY", "T1 sequence (P19793 1-462 partner)": "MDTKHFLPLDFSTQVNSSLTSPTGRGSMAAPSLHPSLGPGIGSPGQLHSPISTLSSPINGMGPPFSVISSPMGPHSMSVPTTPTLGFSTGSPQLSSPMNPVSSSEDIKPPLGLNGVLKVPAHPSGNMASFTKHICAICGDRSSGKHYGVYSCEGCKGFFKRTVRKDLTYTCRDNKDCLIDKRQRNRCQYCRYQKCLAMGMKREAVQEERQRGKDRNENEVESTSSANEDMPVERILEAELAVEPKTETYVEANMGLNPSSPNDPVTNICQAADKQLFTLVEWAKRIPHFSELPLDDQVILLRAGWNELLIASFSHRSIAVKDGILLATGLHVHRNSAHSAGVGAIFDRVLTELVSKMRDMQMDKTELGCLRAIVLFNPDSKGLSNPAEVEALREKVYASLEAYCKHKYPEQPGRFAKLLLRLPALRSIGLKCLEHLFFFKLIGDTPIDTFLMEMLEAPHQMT", "test": "PPARγ reporter (CTF) functional assay in CV1 cells", "type": "cell-based", "details": "examined up to 10 M; versus 10 μM PPAR agonist reference compound", "description": "Because GPR40 is known to be activated by ligands to PPARγ, exemplified compounds are examined in Gal4 PPARα, Gal4 PPARδ, and PPARγ reporter assays to determine the selectivity of exemplified compounds for PPAR receptors. CV1 cells, which are derived from the renal tissue of an African green monkey, are transfected with various receptor and reporter plasmids using Fugene. […] After 24 hours incubation with compounds, cells are lysed and luciferase activity is determined as a measure of receptor activation by luminescence. […] The maximum percent stimulation is determined versus maximum stimulation obtained with 10 μM of an appropriate PPAR agonist reference compound, 2-methyl-2-(4-{2-methyl-3-[2-(phenylcarbonyl)-4-(trifluoromethoxy)phenoxy]propoxy}phenoxy)propanoic acid. […] Efficacy was negative for PPARα, PPARδ, and PPARγ is detected with the compound of Example 1 when examined up to […] in the specific PPAR co-transfection (CTF) functional assays described above. […]"}},
  "data": [
    {"smiles": "CC#C[C@@H](CC(=O)O)c1ccc(OCc2cc(-c3ccccc3C)cn3ncnc23)cc1", "note": "[Example 1, (S)-3-[4-(6-o-Tolyl-[1,2,4]triazolo[1,5-a]pyridin-8-ylmethoxy)-phenyl]-hex-4-ynoic acid]", "values": [
      {"measurement": "Glucose levels compared to vehicle control", "setting": "[1]; 30 and 60 minute time points, Example 1 at 10, 30, 100 mg/kg oral, positive control 10 mg/kg", "value": "significantly lowered"},
      {"measurement": "ED50", "setting": "[1]; Mus musculus, oral, 60 min before glucose 2 g/kg i.p., read-out: ED50 based on AUCs for glucose lowering", "value": 7.9, "unit": "mg/kg"},
      {"measurement": "Efficacy for PPARγ", "setting": "[2]", "value": "negative (Efficacy of <20% is considered negative)"}
    ]}
  ]
}
